Patent publication US12077503B2, “Substituted cyclic amides and their use as herbicides” (FMC CORPORATION, priority 2015, dated 2024)

Tests used:
Type in all cases: in vivo
[1] = system: redroot pigweed (Amaranthus retroflexus); assay: Test G Post-Emergence Protocol; details: Amaranthus retroflexus, post-emergence, 312 h; for pest or weed control at 15.625 g/ha: 15.625 g ai/ha, evaluated after 13 days (100=total damage to plant; 0=no damage to plant), read-out: Pigweed, Redroot damage rating; for pest or weed control at 62.5 g/ha: 62.5 g ai/ha, read-out: Pigweed, Redroot damage rating (100=total damage to plant; 0=no damage to plant); for pest or weed control at 62.5 g/ha / pest or weed control at 250 g/ha: evaluated after 13 days; for pest or weed control at 250 g/ha: 250 g ai/ha, read-out: damage to plant, Pigweed, Redroot (100=total damage to plant; 0=no damage to plant)
In short: (§1)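 A glasshouse post-emergence test: 8-day-old plants sprayed at 15.625, 62.5 or 250 g/ha, then grown at 24/16 °C day/night with 14 h light and 65% humidity. Damage rated 13 days later, 0–100.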

[2] = system: barnyardgrass (Echinochloa crus-galli); assay: Test G Post-Emergence Protocol; details: Echinochloa crus-galli, post-emergence, 312 h; for pest or weed control at 15.625 g/ha: 15.625 g ai/ha, evaluated after 13 days (100=total damage to plant; 0=no damage to plant), read-out: Barnyardgrass damage rating; for pest or weed control at 62.5 g/ha: 62.5 g ai/ha, read-out: Barnyardgrass damage rating (100=total damage to plant; 0=no damage to plant); for pest or weed control at 62.5 g/ha / pest or weed control at 250 g/ha: evaluated after 13 days; for pest or weed control at 250 g/ha: 250 g ai/ha, read-out: damage to plant, Barnyardgrass (100=total damage to plant; 0=no damage to plant)
In short: as §1

[3] = system: ivy-leaved morning glory (Ipomoea hederacea); assay: Test G Post-Emergence Protocol; details: Ipomoea, post-emergence, 312 h; for pest or weed control at 15.625 g/ha: 15.625 g ai/ha, evaluated after 13 days (100=total damage to plant; 0=no damage to plant), read-out: Morningglory, Ivy-leaved damage rating; for pest or weed control at 62.5 g/ha: 62.5 g ai/ha, read-out: Morningglory, Ivy-leaved damage rating (100=total damage to plant; 0=no damage to plant); for pest or weed control at 62.5 g/ha / pest or weed control at 250 g/ha: evaluated after 13 days; for pest or weed control at 250 g/ha: 250 g ai/ha, read-out: damage to plant, Morningglory, Ivy-leaved (100=total damage to plant; 0=no damage to plant)
In short: as §1

[4] = system: giant foxtail (Setaria faberi); assay: Test G Post-Emergence Protocol; details: Setaria faberi, post-emergence, 312 h; for pest or weed control at 15.625 g/ha: 15.625 g ai/ha, evaluated after 13 days (100=total damage to plant; 0=no damage to plant), read-out: Foxtail, Giant damage rating; for pest or weed control at 62.5 g/ha: 62.5 g ai/ha, read-out: Foxtail, Giant damage rating (100=total damage to plant; 0=no damage to plant); for pest or weed control at 62.5 g/ha / pest or weed control at 250 g/ha: evaluated after 13 days; for pest or weed control at 250 g/ha: 250 g ai/ha, read-out: damage to plant, Foxtail, Giant (100=total damage to plant; 0=no damage to plant)
In short: as §1

corn (Zea mays) [5] = assay: Test G Post-Emergence Protocol; details: Zea mays, post-emergence, 312 h; for plant injury at 15.625 g/ha: 15.625 g ai/ha, evaluated after 13 days (100=total damage to plant; 0=no damage to plant), read-out: Corn damage rating; for plant injury at 62.5 g/ha: 62.5 g ai/ha, read-out: Corn damage rating (100=total damage to plant; 0=no damage to plant); for plant injury at 62.5 g/ha / plant injury at 250 g/ha: evaluated after 13 days; for plant injury at 250 g/ha: 250 g ai/ha, read-out: damage to plant, Corn (100=total damage to plant; 0=no damage to plant)
In short: as §1

[6] = system: velvetleaf (Abutilon theophrasti); assay: Test G Post-Emergence Protocol; details: Abutilon theophrasti, post-emergence, 312 h; for pest or weed control at 15.625 g/ha: 15.625 g ai/ha, evaluated after 13 days (100=total damage to plant; 0=no damage to plant), read-out: Velvetleaf damage rating; for pest or weed control at 62.5 g/ha: 62.5 g ai/ha, read-out: Velvetleaf damage rating (100=total damage to plant; 0=no damage to plant); for pest or weed control at 62.5 g/ha / pest or weed control at 250 g/ha: evaluated after 13 days; for pest or weed control at 250 g/ha: 250 g ai/ha, read-out: damage to plant, Velvetleaf (100=total damage to plant; 0=no damage to plant)
In short: as §1

[7] = system: redroot pigweed (Amaranthus retroflexus); assay: Test G Pre-Emergence Protocol; details: Amaranthus retroflexus, pre-emergence, 312 h, evaluated after 13 days; for pest or weed control at 15.625 g/ha: 15.625 g ai/ha; for pest or weed control at 15.625 g/ha / pest or weed control at 250 g/ha: read-out: Pigweed, Redroot damage rating (100=total damage to plant; 0=no damage to plant); for pest or weed control at 62.5 g/ha: 62.5 g ai/ha, 100=total damage to plant, 0=no damage to plant, read-out: plant damage rating, Pigweed, Redroot; for pest or weed control at 250 g/ha: 250 g ai/ha
In short: (§2)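 Visual injury (0–100) at day 13 after a single pre-emergence spray. Rates: 15.625, 62.5, 250 g/ha in acetone–water 50:50 with 0.5% Tween 20. Growth conditions: 24/16° C, 14 h light, 65% humidity.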

[8] = system: barnyardgrass (Echinochloa crus-galli); assay: Test G Pre-Emergence Protocol; details: Echinochloa crus-galli, pre-emergence, 312 h, evaluated after 13 days; for pest or weed control at 15.625 g/ha: 15.625 g ai/ha, read-out: Barnyard grass damage rating (100=total damage to plant; 0=no damage to plant); for pest or weed control at 62.5 g/ha: 62.5 g ai/ha, 100=total damage to plant, 0=no damage to plant, read-out: plant damage rating, Barnyardgrass; for pest or weed control at 250 g/ha: 250 g ai/ha, read-out: Barnyardgrass damage rating (100=total damage to plant; 0=no damage to plant)
In short: as §2

[9] = system: ivy-leaved morning glory (Ipomoea hederacea); assay: Test G Pre-Emergence Protocol; details: Ipomoea, pre-emergence, 312 h, evaluated after 13 days; for pest or weed control at 15.625 g/ha: 15.625 g ai/ha, read-out: Morning-glory, Ivy-leaved damage rating (100=total damage to plant; 0=no damage to plant); for pest or weed control at 62.5 g/ha: 62.5 g ai/ha, 100=total damage to plant, 0=no damage to plant, read-out: plant damage rating, Morningglory, Ivy-leaved; for pest or weed control at 250 g/ha: 250 g ai/ha, read-out: Morningglory, Ivy-leaved damage rating (100=total damage to plant; 0=no damage to plant)
In short: as §2

[10] = system: giant foxtail (Setaria faberi); assay: Test G Pre-Emergence Protocol; details: Setaria faberi, pre-emergence, 312 h, evaluated after 13 days; for pest or weed control at 15.625 g/ha: 15.625 g ai/ha; for pest or weed control at 15.625 g/ha / pest or weed control at 250 g/ha: read-out: Foxtail, Giant damage rating (100=total damage to plant; 0=no damage to plant); for pest or weed control at 62.5 g/ha: 62.5 g ai/ha, 100=total damage to plant, 0=no damage to plant, read-out: plant damage rating, Foxtail, Giant; for pest or weed control at 250 g/ha: 250 g ai/ha
In short: as §2

corn (Zea mays) [11] = assay: Test G Pre-Emergence Protocol; details: Zea mays, pre-emergence, 312 h, evaluated after 13 days; for plant injury at 15.625 g/ha: 15.625 g ai/ha; for plant injury at 15.625 g/ha / plant injury at 250 g/ha: read-out: Corn damage rating (100=total damage to plant; 0=no damage to plant); for plant injury at 62.5 g/ha: 62.5 g ai/ha, 100=total damage to plant, 0=no damage to plant, read-out: plant damage rating, Corn; for plant injury at 250 g/ha: 250 g ai/ha
In short: as §2

[12] = system: velvetleaf (Abutilon theophrasti); assay: Test G Pre-Emergence Protocol; details: Abutilon theophrasti, pre-emergence, 312 h, evaluated after 13 days; for pest or weed control at 15.625 g/ha: 15.625 g ai/ha; for pest or weed control at 15.625 g/ha / pest or weed control at 250 g/ha: read-out: Velvetleaf damage rating (100=total damage to plant; 0=no damage to plant); for pest or weed control at 62.5 g/ha: 62.5 g ai/ha, 100=total damage to plant, 0=no damage to plant, read-out: plant damage rating, Velvetleaf; for pest or weed control at 250 g/ha: 250 g ai/ha
In short: as §2

| SMILES | pest or weed control at 15.625 g/ha [1] [%] | pest or weed control at 62.5 g/ha [1] [%] | pest or weed control at 250 g/ha [1] [%] | pest or weed control at 15.625 g/ha [2] [%] | pest or weed control at 62.5 g/ha [2] [%] | pest or weed control at 250 g/ha [2] [%] | pest or weed control at 15.625 g/ha [3] [%] | pest or weed control at 62.5 g/ha [3] [%] | pest or weed control at 250 g/ha [3] [%] | pest or weed control at 15.625 g/ha [4] [%] | pest or weed control at 62.5 g/ha [4] [%] | pest or weed control at 250 g/ha [4] [%] | plant injury at 15.625 g/ha (corn (Zea mays) [5]) [%] | plant injury at 62.5 g/ha (corn (Zea mays) [5]) [%] | plant injury at 250 g/ha (corn (Zea mays) [5]) [%] | pest or weed control at 15.625 g/ha [6] [%] | pest or weed control at 62.5 g/ha [6] [%] | pest or weed control at 250 g/ha [6] [%] | pest or weed control at 15.625 g/ha [7] [%] | pest or weed control at 62.5 g/ha [7] [%] | other results |
| --- | --- | --- | --- | --- | --- | --- | --- | --- | --- | --- | --- | --- | --- | --- | --- | --- | --- | --- | --- | --- | --- |
| CN1C[C@@H](c2ccc(C(F)(F)F)cc2)[C@H](C(=O)Nc2cnn(C)n2)C1=O (racemic) [Compound 1531] | 0 | 0 | 0 | 0 | 0 | 0 | 0 | 0 | 0 | 0 | 0 | 0 | 0 | 0 | 10 | 0 | 0 | 0 | 0 | 0 | pest or weed control at 250 g/ha [7]: 0%; pest or weed control at 15.625 g/ha [8]: 0%; pest or weed control at 62.5 g/ha [8]: 0%; pest or weed control at 250 g/ha [8]: 0%; pest or weed control at 15.625 g/ha [9]: 0%; pest or weed control at 62.5 g/ha [9]: 0%; pest or weed control at 250 g/ha [9]: 0%; pest or weed control at 15.625 g/ha [10]: 0%; pest or weed control at 62.5 g/ha [10]: 0%; pest or weed control at 250 g/ha [10]: 0%; plant injury at 15.625 g/ha (corn (Zea mays) [11]): 0%; plant injury at 62.5 g/ha (corn (Zea mays) [11]): 0%; plant injury at 250 g/ha (corn (Zea mays) [11]): 0%; pest or weed control at 15.625 g/ha [12]: 0%; pest or weed control at 62.5 g/ha [12]: 0%; pest or weed control at 250 g/ha [12]: 0% |
| CN1C[C@@H](c2ccc(C(F)(F)F)cc2)[C@H](C(=O)Nc2c[nH]nc2C(F)(F)F)C1=O (racemic) [Compound 1535] | 0 | 10 | 30 | 0 | 0 | 0 | 0 | 0 | 0 | 0 | 0 | 0 | 0 | 0 | 10 | 0 | 0 | 0 | 0 | 20 | pest or weed control at 250 g/ha [7]: 40%; pest or weed control at 15.625 g/ha [8]: 0%; pest or weed control at 62.5 g/ha [8]: 0%; pest or weed control at 250 g/ha [8]: 0%; pest or weed control at 15.625 g/ha [9]: 0%; pest or weed control at 62.5 g/ha [9]: 0%; pest or weed control at 250 g/ha [9]: 0%; pest or weed control at 15.625 g/ha [10]: 0%; pest or weed control at 62.5 g/ha [10]: 0%; pest or weed control at 250 g/ha [10]: 0%; plant injury at 15.625 g/ha (corn (Zea mays) [11]): 0%; plant injury at 62.5 g/ha (corn (Zea mays) [11]): 0%; plant injury at 250 g/ha (corn (Zea mays) [11]): 0%; pest or weed control at 15.625 g/ha [12]: 0%; pest or weed control at 62.5 g/ha [12]: 0%; pest or weed control at 250 g/ha [12]: 0% |
| CN1C[C@@H](c2ccc(C(F)(F)F)cc2)[C@H](C(=O)Nc2ncc[nH]2)C1=O (racemic) [Compound 1536] | 0 | 0 | 0 | 0 | 0 | 0 | 0 | 0 | 0 | 0 | 0 | 0 | 0 | 0 | 0 | 0 | 0 | 0 | 0 | 0 | pest or weed control at 250 g/ha [7]: 0%; pest or weed control at 15.625 g/ha [8]: 0%; pest or weed control at 62.5 g/ha [8]: 0%; pest or weed control at 250 g/ha [8]: 0%; pest or weed control at 15.625 g/ha [9]: 0%; pest or weed control at 62.5 g/ha [9]: 0%; pest or weed control at 250 g/ha [9]: 0%; pest or weed control at 15.625 g/ha [10]: 0%; pest or weed control at 62.5 g/ha [10]: 0%; pest or weed control at 250 g/ha [10]: 0%; plant injury at 15.625 g/ha (corn (Zea mays) [11]): 0%; plant injury at 62.5 g/ha (corn (Zea mays) [11]): 0%; plant injury at 250 g/ha (corn (Zea mays) [11]): 0%; pest or weed control at 15.625 g/ha [12]: 0%; pest or weed control at 62.5 g/ha [12]: 0%; pest or weed control at 250 g/ha [12]: 0% |
